Read-outs that look alike come from different tables or passages of the source.
Key:
CS91 cells = experiment: Ex vivo sensitivity of murine melanoma cells after prolonged treatment (MTT); assay type: cell-based, mouse
Experimental: The aseptically collected tumor samples were mechanically dissociated in 1× PBS and passed through a 40 µm cell strainer. Single cell suspensions were centrifuged and resuspended in full growth media supplemented with 100 µg/mL of primocin. The cells were then plated and allowed to adhere for 24 h. Afterward, the cultures were washed twice with 1× PBS to remove non-adherent cells and allowed to grow in full growth media.
GraphPad Prism 9 was used to determine the IC50 of each compound by plotting the percent cell viability against the log drug concentrations and fitted using a nonlinear fit of the normalized data.

[1] = Body weight, cecum weight and toxicity signs in treated mice; assay type: in vivo, mouse
Experimental: (§1) As described above, male DBA/2 mice were purchased from Charles River and housed in the Chapman University vivarium under pathogen-free conditions. Each mouse received a subcutaneous injection in the flank with 0.25 × 10^6 CS91 cells suspended in 50% Matrigel. […] The body weight and tumor volume were measured twice weekly for three weeks. Tumors were measured using calipers, and the volume (mm^3) was calculated with the following formula: volume = [length × (width^2)]/2. The mice were sacrificed once their tumors reached 2000 mm^3, and dates were recorded for survival analysis.
Upon reaching the study endpoint, the mice were euthanized, and organs were collected and weighed.

melanoma cells = tested on: melanoma cells; set-up: method as in PMID 35105915; conditions: read-out: Cytotoxicity IC50; cited from earlier work
Human nNOS = Human nNOS (Homo sapiens, UniProt P29475); experiment: nNOS inhibitory assay, human nNOS; assay type: biochemical; conditions: calculated from IC50 with Cheng-Prusoff equation; read-out: Ki Human nNOS (hn)
Experimental: The Ki values were calculated from the IC50 values of the corresponding dose-response curves using the Cheng-Prusoff equation. […] Selectivity values were determined by calculating the ratios of the respective Ki values.

[2] = tested on: CS91 murine melanoma allograft; experiment: Survival analysis in the murine melanoma model (endpoint tumor volume 2000 mm^3); assay type: in vivo, mouse; conditions: DBA/2 mice, CS91, result in words
Experimental: as §1
Statistical analyses were carried out using GraphPad Prism 9. Comparisons of multiple groups were performed using mixed-effects analysis of variance (ANOVA) followed by Tukey’s post hoc test for parametric data. Statistical comparisons of two groups were performed using an unpaired two-tailed t-test for parametric data. Statistical comparison for a simple 2 × 2 contingency table was performed using a Chi-Square calculator on Social Science Statistics. Kaplan Meier methods were utilized for estimating the survival probability over time, with a tumor volume of 2000 mm^3 marking the endpoint for the survival study. A p value less than 0.05 was considered statistically significant for all statistical analyses. Data are graphically represented as bar graphs with the mean ± standard error of the mean (SEM).

Human eNOS = Human eNOS (Homo sapiens, UniProt P29474); experiment: NOS selectivity assay, human eNOS; assay type: biochemical; conditions: calculated from IC50 with Cheng-Prusoff equation; read-out: Ki Human eNOS (he)
Experimental: The Ki values were calculated from the IC50 values of the corresponding dose-response curves using the Cheng-Prusoff equation. […] All standard errors were less than 5%. Selectivity values were determined by calculating the ratios of the respective Ki values.

peripheral T cells = experiment: Immune profile of peripheral T cells in allograft melanoma mice (flow cytometry); assay type: in vivo, mouse; conditions: HH044 10 mg/kg intraperitoneal daily, peripheral blood, vs control group
Experimental: The in vivo studies were carried out in compliance with the ARRIVE guidelines. All animal procedures were approved by the Institutional Animal Care and Use Committee (IACUC) at Chapman University and conducted in compliance with the policies of Chapman University and federal, state, and local animal welfare authorities. DBA/2 mice were purchased from Charles River (Wilmington, MA, USA) and housed in the Chapman University vivarium. Male mice were selected for the in vivo studies due to the markedly slow growth rate of CS91 cells in female mice observed in previous studies. To induce melanoma tumor growth, the mice were injected subcutaneously with 1 × 10^5 CS91 murine melanoma cells in a 100 μL solution of 50% Matrigel basement membrane matrix (CB354248, Corning, Corning, NY, USA). […] At the end of the study, peripheral blood was collected from the mice for T cell analysis.
Cells were blocked in FACS block buffer (0.5% BSA, 2% FBS in 1× PBS) and incubated in a surface marker antibody dilution in FACS wash buffer (0.5% BSA, 0.05% NaN3 in 1× PBS). Following fixation with True-Nuclear Fix Buffer (424401; BioLegend, San Diego, CA, USA), the cells were incubated with an intracellular antibody diluted in True-Nuclear Perm Buffer (424401; BioLegend, San Diego, CA, USA) overnight at 4 °C. The stained cells were then washed with Perm Buffer and analyzed using a BD Fortessa X20 flow cytometer (BD Biosciences, San Jose, CA, USA). Compensation beads (anti-mouse 552843; anti-rat 552844; BD Biosciences, Franklin Lakes, NJ, USA) stained with single antibodies were used to calculate the compensation, and data were analyzed and gated using FlowJo v. 10.8.1 (FlowJo LLC, Ashland, OR, USA).
Peripheral blood samples were collected from the DBA/2 mice at the end of the study. T cells were isolated from the blood using Ficoll separation and stained as described above. The Ficoll-Paque solution was obtained from Cytiva (17144002; Marlborough, MA, USA). The T cell marker antibodies used were Brilliant Violet 605 anti-mouse CD3, PE/Cyanine7 anti-mouse CD4, Brilliant Violet 785 anti-mouse CD8a, APC/Cyanine7 anti-mouse CD279 (PD-1), Alexa Fluor 647 anti-GATA3, Alexa Fluor 488 anti-mouse FOXP3, Brilliant Violet 421 anti-T-bet (100237; 100421; 100749; 135223; 653809; 126406; 644815; BioLegend, San Diego, CA, USA), and PE-CF594 mouse anti-mouse RORγt (562684; BD Biosciences, Franklin Lakes, NJ, USA).

[3] = tested on: CS91 murine melanoma allograft; experiment: In vivo anti-melanoma efficacy, immunocompetent allograft model, tumor volume; set-up: species or system mouse; conditions: day 18, DBA/2 mice, nNOS inhibitor 10 mg/kg/day intraperitoneal, anti-PD-1 100 µg twice per week for 2 weeks
Experimental: as §1

A375 cells = experiment: NanoString nCounter PanCancer IO 360 gene expression profiling; assay type: cell-based, human
Experimental: After treatment, the total RNA samples were collected from A375 cells using an RNeasy Mini Kit (#74104; Qiagen, Hilden, Germany) and stored at −80 °C prior to analysis. The nCounter PanCancer IO 360 Panel and nCounter Pro Analysis System (NanoString, Seattle, WA, USA) were used to quantify gene expression changes in 770 genes implicated in immune-oncological processes. The transcriptomic data were analyzed using ROSALIND online platform (https://www.rosalind.bio/, San Diego, CA, USA).
(b) Comparing IFN-γ treatment to control. (c) Comparing the combination treatment to IFN-γ alone. […] All the treatments were independently repeated three times. […] The analysis was based on the expression changes of genes involved in each specific pathway, with a higher score signifying a greater probability of pathway involvement.

Chain of Human eNOS (P29474 whole entry): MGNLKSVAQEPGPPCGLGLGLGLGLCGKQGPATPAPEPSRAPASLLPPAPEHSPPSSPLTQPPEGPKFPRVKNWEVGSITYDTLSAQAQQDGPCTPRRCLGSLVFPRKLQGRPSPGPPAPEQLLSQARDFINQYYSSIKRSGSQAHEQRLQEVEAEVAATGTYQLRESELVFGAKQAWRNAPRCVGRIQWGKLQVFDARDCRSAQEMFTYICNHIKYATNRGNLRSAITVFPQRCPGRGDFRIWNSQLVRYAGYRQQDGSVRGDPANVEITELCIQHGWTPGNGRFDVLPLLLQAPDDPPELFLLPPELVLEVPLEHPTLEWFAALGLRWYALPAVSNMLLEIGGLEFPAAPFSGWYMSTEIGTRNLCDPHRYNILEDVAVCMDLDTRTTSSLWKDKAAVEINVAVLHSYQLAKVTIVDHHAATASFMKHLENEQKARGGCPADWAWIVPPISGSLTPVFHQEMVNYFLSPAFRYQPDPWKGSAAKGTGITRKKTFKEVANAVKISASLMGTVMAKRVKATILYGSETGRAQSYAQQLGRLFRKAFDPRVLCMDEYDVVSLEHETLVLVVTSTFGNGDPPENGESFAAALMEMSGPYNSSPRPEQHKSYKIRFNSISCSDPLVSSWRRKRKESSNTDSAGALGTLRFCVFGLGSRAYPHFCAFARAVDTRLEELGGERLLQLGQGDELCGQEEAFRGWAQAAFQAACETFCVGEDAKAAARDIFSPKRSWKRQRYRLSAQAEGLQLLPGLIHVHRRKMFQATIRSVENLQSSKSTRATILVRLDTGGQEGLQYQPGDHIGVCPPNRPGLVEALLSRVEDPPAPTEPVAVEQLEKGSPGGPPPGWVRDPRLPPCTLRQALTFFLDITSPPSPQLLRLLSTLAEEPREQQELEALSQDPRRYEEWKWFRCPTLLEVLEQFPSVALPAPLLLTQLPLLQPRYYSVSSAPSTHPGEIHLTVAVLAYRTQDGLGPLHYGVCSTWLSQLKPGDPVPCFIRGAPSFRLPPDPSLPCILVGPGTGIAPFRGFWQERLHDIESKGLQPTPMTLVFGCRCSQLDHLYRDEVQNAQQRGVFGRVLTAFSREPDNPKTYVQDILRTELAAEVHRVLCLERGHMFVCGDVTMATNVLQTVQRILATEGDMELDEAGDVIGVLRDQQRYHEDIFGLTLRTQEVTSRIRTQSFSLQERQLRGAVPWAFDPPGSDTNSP
Chain of Human nNOS (P29475 whole entry): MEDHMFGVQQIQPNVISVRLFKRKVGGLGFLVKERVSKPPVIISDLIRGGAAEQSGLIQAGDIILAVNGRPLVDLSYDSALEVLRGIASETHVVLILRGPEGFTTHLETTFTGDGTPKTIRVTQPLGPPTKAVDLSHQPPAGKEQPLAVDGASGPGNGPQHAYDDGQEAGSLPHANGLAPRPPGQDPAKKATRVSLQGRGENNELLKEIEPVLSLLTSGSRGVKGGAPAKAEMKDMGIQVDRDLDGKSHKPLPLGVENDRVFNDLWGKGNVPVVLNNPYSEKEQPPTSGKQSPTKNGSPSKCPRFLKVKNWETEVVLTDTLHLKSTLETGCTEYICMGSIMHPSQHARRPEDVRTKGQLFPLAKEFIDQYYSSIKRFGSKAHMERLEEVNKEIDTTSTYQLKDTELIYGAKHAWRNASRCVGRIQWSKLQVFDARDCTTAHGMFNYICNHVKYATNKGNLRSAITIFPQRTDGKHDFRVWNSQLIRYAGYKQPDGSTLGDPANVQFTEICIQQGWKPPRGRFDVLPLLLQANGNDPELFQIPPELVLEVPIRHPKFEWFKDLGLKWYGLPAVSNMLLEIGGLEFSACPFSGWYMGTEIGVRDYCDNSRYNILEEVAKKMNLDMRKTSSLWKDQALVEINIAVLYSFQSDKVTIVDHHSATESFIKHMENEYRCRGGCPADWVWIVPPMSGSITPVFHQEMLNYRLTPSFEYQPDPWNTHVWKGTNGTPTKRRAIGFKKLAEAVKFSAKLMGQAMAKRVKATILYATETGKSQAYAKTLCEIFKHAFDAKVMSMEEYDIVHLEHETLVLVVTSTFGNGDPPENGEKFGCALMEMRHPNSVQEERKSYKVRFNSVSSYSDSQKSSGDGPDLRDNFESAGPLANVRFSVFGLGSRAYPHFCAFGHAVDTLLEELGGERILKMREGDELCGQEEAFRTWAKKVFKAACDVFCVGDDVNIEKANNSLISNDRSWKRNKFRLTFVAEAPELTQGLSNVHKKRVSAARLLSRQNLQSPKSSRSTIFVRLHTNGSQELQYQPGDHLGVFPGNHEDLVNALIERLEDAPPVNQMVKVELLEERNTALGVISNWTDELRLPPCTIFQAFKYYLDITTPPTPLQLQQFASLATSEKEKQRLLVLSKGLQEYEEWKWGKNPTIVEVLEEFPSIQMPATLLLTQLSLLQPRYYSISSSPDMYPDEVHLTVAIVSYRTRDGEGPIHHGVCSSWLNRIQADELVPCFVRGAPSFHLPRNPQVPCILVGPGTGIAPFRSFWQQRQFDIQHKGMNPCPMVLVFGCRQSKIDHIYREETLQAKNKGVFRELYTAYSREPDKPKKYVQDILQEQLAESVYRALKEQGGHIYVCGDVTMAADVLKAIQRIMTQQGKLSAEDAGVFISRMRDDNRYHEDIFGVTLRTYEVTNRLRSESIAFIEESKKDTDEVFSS

With `N=C(Nc1ccc(CCNCc2cccc(NC(=N)c3cccs3)c2)cc1)c1cccs1` [HH044] the IC50 (CS91 cells; mice treated with the same compound 10 mg/kg/day intraperitoneal, read-out: IC50 of CS91 cells isolated from tumors of nNOS inhibitor-treated mice) was 10.4 µM, the IC50 (CS91 cells; read-out: IC50 of in vitro cultured CS91 cells) was 12.7 µM and the cecum weights ([1]; HH044 intraperitoneal 10 mg/kg/day ≥21 days vs control, p < 0.0001) was “significantly increased”. For the same compound, the cecum weight ([1]; HH044 oral gavage 10, 25 and 50 mg/kg per os daily, preliminary study) was “failed to observe any significant differences”, the “behavior and signs of toxicity during treatment” value ([1]; HH044 treatment ≥21 days) was “no behavioral changes or other observable signs of severe toxicity or distress” and the body weight ([1]; HH044 treatment, 21 days) was 88 % of the control. The “body weight compared with the control” value ([1]; prolonged treatment, 21 days) was “significantly lower”, the IC50 (melanoma cells) was 5.27 ± 3.3 µM and the Ki (Human nNOS) was 0.02 µM. For the same compound, the “median survival / mouse survival compared with the control group” value [2] was “not found to have significantly different median survival values”, the Ki (Human eNOS) was 6.74 µM and the “CD4+ T cell counts” value (peripheral T cells) was “significantly increased”. For the same compound, the “CD4+GATA3+, CD4+RORγt+, CD4+Tbet+, and CD4+RORγt+FOXP3+ T cell counts” value (peripheral T cells) was “decreased”, the “CD8+FOXP3+, CD8+GATA3+, CD8+Tbet+, and CD8+RORγt+FOXP3+ T cells” value (peripheral T cells) was “significantly decreased” and the “frequency of CD8+PD-1+ T cells” value (peripheral T cells) was “markedly increased”. The “overall percentage of CD8+ T cells” value (peripheral T cells) was “significantly decreased”, the “tumor growth / average tumor volume” value [3] was 45.7 % of the control and the Notch2 expression (A375 cells; HH044 in the presence of IFN-γ) was “increased”. The AXIN1 expression (A375 cells; HH044 treatment, A375) was “increased”, the WNT5A expression (A375 cells; HH044 treatment, A375) was “downregulated” and the IL-1α expression (A375 cells; HH044 treatment, A375, p < 0.05) was 30.3 % of the control. The “expression of EDN1, PDGFB, and MMP9” value (A375 cells; HH044 treatment, A375, vs control) was “significantly reduced”.

Source: paper PMC12196278, “Targeting Neuronal Nitric Oxide Synthase (nNOS) as a Novel Approach to Enhancing the Anti-Melanoma Activity of Immune Checkpoint Inhibitors” (Pharmaceutics, 2025)
